{
  "source": "ChEMBL document CHEMBL1126229",
  "about": "“Enol lactone derivatives as inhibitors of human neutrophil elastase and trypsin-like proteases” (Bioorg Med Chem Lett, 1992)",
  "key": {"[1]": {"molecular_target": "Chymotrypsinogen A (Bos taurus) (UniProt P00766)", "test": "Binding constant on alpha-chymotrypsin was determined"}, "[2]": {"molecular_target": "T1, Chymotrypsin-like elastase family member 2A (Sus scrofa) (UniProt P08419)", "T1 sequence (whole entry)": "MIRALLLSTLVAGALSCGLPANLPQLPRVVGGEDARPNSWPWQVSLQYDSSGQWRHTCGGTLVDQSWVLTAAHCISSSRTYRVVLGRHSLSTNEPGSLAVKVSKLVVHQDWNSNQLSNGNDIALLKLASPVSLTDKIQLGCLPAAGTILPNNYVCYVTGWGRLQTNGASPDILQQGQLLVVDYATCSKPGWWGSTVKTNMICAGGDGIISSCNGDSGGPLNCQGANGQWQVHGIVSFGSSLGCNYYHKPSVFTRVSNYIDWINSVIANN", "test": "Specificity constant on porcine pancreatic elastase was determined at 30 percent and at 99 minutes for maximum inhibition and no enzyme activity was recovered over the 2 h-time"}, "[3]": {"molecular_target": "Chymotrypsinogen A (Bos taurus) (UniProt P00766)", "test": "Rate constant of acylation on alpha-chymotrypsin was determined"}, "Serine protease 1 [4]": {"molecular_target": "T2, Serine protease 1 (Homo sapiens, UniProt P07477)", "T2 sequence (P07477 whole entry)": "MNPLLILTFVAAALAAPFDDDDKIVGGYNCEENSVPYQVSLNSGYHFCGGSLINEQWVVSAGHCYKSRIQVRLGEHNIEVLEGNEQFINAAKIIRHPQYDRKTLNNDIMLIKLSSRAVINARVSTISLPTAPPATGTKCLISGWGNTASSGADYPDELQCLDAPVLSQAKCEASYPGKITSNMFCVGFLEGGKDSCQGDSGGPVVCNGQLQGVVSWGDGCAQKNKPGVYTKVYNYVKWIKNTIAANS", "test": "Specificity constant on trypsin was determined"}, "[5]": {"molecular_target": "T1, Chymotrypsin-like elastase family member 2A (Sus scrofa)", "test": "Rate constant of acylation on porcine pancreatic elastase was determined at 30 percent and at 99 minutes for maximum inhibition and no enzyme activity was recovered over the 2 h-time"}, "[6]": {"molecular_target": "T1, Chymotrypsin-like elastase family member 2A (Sus scrofa)", "test": "Binding constant on porcine pancreatic elastase was determined at 30 percent and at 99 minutes for maximum inhibition and no enzyme activity was recovered over the 2 h-time"}, "[7]": {"molecular_target": "T3, Neutrophil elastase (Homo sapiens) (UniProt P08246)", "T3 sequence (whole entry)": "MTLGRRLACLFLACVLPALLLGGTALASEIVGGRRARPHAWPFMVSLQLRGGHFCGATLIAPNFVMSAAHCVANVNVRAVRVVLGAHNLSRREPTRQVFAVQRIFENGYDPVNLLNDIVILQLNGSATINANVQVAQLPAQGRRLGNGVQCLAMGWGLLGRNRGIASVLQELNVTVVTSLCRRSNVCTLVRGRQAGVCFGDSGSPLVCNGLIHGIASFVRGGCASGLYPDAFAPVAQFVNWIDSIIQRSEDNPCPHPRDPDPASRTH", "test": "Specificity constant on human neutrophil elastase was determined at 20 percent and at 99 minutes for maximum inhibition and no enzyme activity was recovered over the 2 h-time"}, "[8]": {"molecular_target": "T3, Neutrophil elastase (Homo sapiens)", "test": "Binding constant on human neutrophil elastase was determined at 20 percent and at 99 minutes for maximum inhibition and no enzyme activity was recovered over the 2 h-time"}, "Serine protease 1 [9]": {"molecular_target": "T2, Serine protease 1", "test": "Rate constant of acylation on trypsin was determined"}, "Serine protease 1 [10]": {"molecular_target": "T2, Serine protease 1", "test": "Binding constant on trypsin was determined"}, "[11]": {"molecular_target": "T3, Neutrophil elastase (Homo sapiens)", "test": "Rate constant of acylation on human neutrophil elastase was determined at 20 percent and at 99 minutes for maximum inhibition and no enzyme activity was recovered over the 2 h-time"}, "[12]": {"molecular_target": "Chymotrypsinogen A (Bos taurus) (UniProt P00766)", "test": "Specificity constant on alpha-chymotrypsin was determined"}, "[13]": {"molecular_target": "T3, Neutrophil elastase (Homo sapiens)", "test": "Rate constant of acylation on human neutrophil elastase was determined at 48 percent and at 60 minutes for maximum inhibition with 0 minutes persistence of inhibition"}, "[14]": {"molecular_target": "T1, Chymotrypsin-like elastase family member 2A (Sus scrofa)", "test": "Binding constant on porcine pancreatic elastase was determined at 42 percent and at 55 minutes for maximum inhibition and no enzyme activity was recovered over the 2 h-time"}, "[15]": {"molecular_target": "T1, Chymotrypsin-like elastase family member 2A (Sus scrofa)", "test": "Specificity constant on porcine pancreatic elastase was determined at 42 percent and at 55 minutes for maximum inhibition and no enzyme activity was recovered over the 2 h-time"}, "[16]": {"molecular_target": "T1, Chymotrypsin-like elastase family member 2A (Sus scrofa)", "test": "Rate constant of acylation on porcine pancreatic elastase was determined at 42 percent and at 55 minutes for maximum inhibition and no enzyme activity was recovered over the 2 h-time"}, "[17]": {"molecular_target": "T3, Neutrophil elastase (Homo sapiens)", "test": "Binding constant on human neutrophil elastase was determined at 48 percent and at 60 minutes for maximum inhibition with 0 minutes persistence of inhibition"}, "[18]": {"molecular_target": "T3, Neutrophil elastase (Homo sapiens)", "test": "Specificity constant on human neutrophil elastase was determined at 48 percent and at 60 minutes for maximum inhibition and with 0 minutes persistence of inhibition"}, "Serine protease 1 [19]": {"molecular_target": "T2, Serine protease 1", "test": "Rate constant of deacylation for trypsin"}, "[20]": {"molecular_target": "Urokinase-type plasminogen activator (Homo sapiens, UniProt P00749)", "test": "Rate constant of deacylation for Urokinase-type plasminogen activator"}, "Plasminogen": {"molecular_target": "Plasminogen (Homo sapiens, UniProt P00747)", "sequence (P00747 97-580 limits assumed)": "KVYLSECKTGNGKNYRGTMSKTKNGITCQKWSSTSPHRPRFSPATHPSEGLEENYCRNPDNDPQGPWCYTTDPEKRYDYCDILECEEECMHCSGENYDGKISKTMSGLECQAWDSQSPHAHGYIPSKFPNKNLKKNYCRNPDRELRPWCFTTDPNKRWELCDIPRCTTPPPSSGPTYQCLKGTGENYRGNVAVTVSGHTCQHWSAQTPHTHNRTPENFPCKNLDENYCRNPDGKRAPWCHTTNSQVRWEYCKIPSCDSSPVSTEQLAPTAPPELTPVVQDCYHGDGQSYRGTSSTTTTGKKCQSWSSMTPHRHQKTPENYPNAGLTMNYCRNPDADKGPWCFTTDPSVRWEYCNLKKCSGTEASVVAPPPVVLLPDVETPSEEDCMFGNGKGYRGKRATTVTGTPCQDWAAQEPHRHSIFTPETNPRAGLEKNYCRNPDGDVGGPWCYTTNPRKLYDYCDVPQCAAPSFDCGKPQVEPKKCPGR", "sequence (P00747 581-810 limits assumed)": "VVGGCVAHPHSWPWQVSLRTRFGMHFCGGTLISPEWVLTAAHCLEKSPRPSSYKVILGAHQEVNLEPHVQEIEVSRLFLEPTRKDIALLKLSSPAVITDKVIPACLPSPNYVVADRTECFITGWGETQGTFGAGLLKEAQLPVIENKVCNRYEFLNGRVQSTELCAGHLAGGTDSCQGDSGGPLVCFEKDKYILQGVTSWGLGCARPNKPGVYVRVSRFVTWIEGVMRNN", "test": "Rate constant of deacylation for plasmin; Fast and could not be measured"}, "[21]": {"molecular_target": "T3, Neutrophil elastase (Homo sapiens)", "test": "Specificity constant on human neutrophil elastase was determined at 18 percent and at 26 minutes for maximum inhibition and no enzyme activity was recovered over the 2 h-time"}, "[22]": {"molecular_target": "T1, Chymotrypsin-like elastase family member 2A (Sus scrofa)", "test": "Rate constant of acylation on porcine pancreatic elastase was determined at 60 percent and at 30 minutes for maximum inhibition and no enzyme activity was recovered over the 2 h-time"}, "[23]": {"molecular_target": "T1, Chymotrypsin-like elastase family member 2A (Sus scrofa)", "test": "Specificity constant on porcine pancreatic elastase was determined at 60 percent and at 30 minutes for maximum inhibition and no enzyme activity was recovered over the 2 h-time"}, "[24]": {"molecular_target": "T1, Chymotrypsin-like elastase family member 2A (Sus scrofa)", "test": "Binding constant on porcine pancreatic elastase was determined at 60 percent and at 30 minutes for maximum inhibition and no enzyme activity was recovered over the 2 h-time"}, "[25]": {"molecular_target": "T3, Neutrophil elastase (Homo sapiens)", "test": "Binding constant on human neutrophil elastase was determined at 18 percent and at 26 minutes for maximum inhibition and no enzyme activity was recovered over the 2 h-time"}, "[26]": {"molecular_target": "T3, Neutrophil elastase (Homo sapiens)", "test": "Rate constant of acylation on human neutrophil elastase was determined at 18 percent and at 26 minutes for maximum inhibition and no enzyme activity was recovered over the 2 h-time"}, "[27]": {"molecular_target": "Chymotrypsinogen A (Bos taurus) (UniProt P00766)", "test": "Rate constant of acylation on alpha-chymotrypsin was determined at 10 percent and at 99 minutes for maximum inhibition and no enzyme activity was recovered over the 2 h-time"}, "Serine protease 1 [28]": {"molecular_target": "T2, Serine protease 1", "test": "Specificity constant on trypsin was determined at 10 percent and at 95 minutes for maximum inhibition and no enzyme activity was recovered over the 2 h-time"}, "[29]": {"molecular_target": "T3, Neutrophil elastase (Homo sapiens)", "test": "Rate constant of acylation on human neutrophil elastase was determined at 90 percent and at 93 minutes for maximum inhibition and no enzyme activity was recovered over the 2 h-time"}, "[30]": {"molecular_target": "T3, Neutrophil elastase (Homo sapiens)", "test": "Specificity constant on human neutrophil elastase was determined at 90 percent and at 93 minutes for maximum inhibition and no enzyme activity was recovered over the 2 h-time"}, "Serine protease 1 [31]": {"molecular_target": "T2, Serine protease 1", "test": "Rate constant of acylation on trypsin was determined at 10 percent and at 95 minutes for maximum inhibition and no enzyme activity was recovered over the 2 h-time"}, "[32]": {"molecular_target": "Chymotrypsinogen A (Bos taurus) (UniProt P00766)", "test": "Binding constant on alpha-chymotrypsin was determined at 10 percent and at 99 minutes for maximum inhibition and no enzyme activity was recovered over the 2 h-time"}, "Serine protease 1 [33]": {"molecular_target": "T2, Serine protease 1", "test": "Binding constant on trypsin was determined at 10 percent and at 95 minutes for maximum inhibition and no enzyme activity was recovered over the 2 h-time"}, "[34]": {"molecular_target": "T3, Neutrophil elastase (Homo sapiens)", "test": "Binding constant on human neutrophil elastase was determined at 90 percent and at 93 minutes for maximum inhibition and no enzyme activity was recovered over the 2 h-time"}, "[35]": {"molecular_target": "Chymotrypsinogen A (Bos taurus) (UniProt P00766)", "test": "Specificity constant on alpha-chymotrypsin was determined at 10 percent and at 99 minutes for maximum inhibition and no enzyme activity was recovered over the 2 h-time"}},
  "data": [
    {"compound": "CC(C)C1CC/C(=C/Br)OC1=O", "note": "(centres undefined)", "values": [
      {"measurement": "Ks/i", "setting": "[1]", "value": 2.3, "unit": "µM"},
      {"measurement": "ka/Ki", "setting": "[2]", "value": 83.3, "unit": "M⁻¹ s⁻¹"},
      {"measurement": "ka", "setting": "[3]", "value": 1.6, "unit": "min⁻¹"},
      {"measurement": "ka/Ki", "setting": "Serine protease 1 [4]", "value": 667, "unit": "M⁻¹ s⁻¹"},
      {"measurement": "ka", "setting": "[5]", "value": 0.28, "unit": "min⁻¹"},
      {"measurement": "Ks/i", "setting": "[6]", "value": 58.8, "unit": "µM"},
      {"measurement": "ka/Ki", "setting": "[7]", "value": 37500, "unit": "M⁻¹ s⁻¹"},
      {"measurement": "Ks/i", "setting": "[8]", "value": 0.08, "unit": "µM"},
      {"measurement": "ka", "setting": "Serine protease 1 [9]", "value": 2.4, "unit": "min⁻¹"},
      {"measurement": "Ks/i", "setting": "Serine protease 1 [10]", "value": 65, "unit": "µM"},
      {"measurement": "ka", "setting": "[11]", "value": 0.18, "unit": "min⁻¹"},
      {"measurement": "ka/Ki", "setting": "[12]", "value": 11700, "unit": "M⁻¹ s⁻¹"}
    ]},
    {"compound": "C=C1CC(C)(C)CC(=O)O1", "values": [
      {"measurement": "ka", "setting": "[13]", "value": 0.77, "unit": "min⁻¹"},
      {"measurement": "Ks/i", "setting": "[14]", "value": 104, "unit": "µM"},
      {"measurement": "ka/Ki", "setting": "[15]", "value": 83.3, "unit": "M⁻¹ s⁻¹"},
      {"measurement": "ka", "setting": "[16]", "value": 0.51, "unit": "min⁻¹"},
      {"measurement": "Ks/i", "setting": "[17]", "value": 43.3, "unit": "µM"},
      {"measurement": "ka/Ki", "setting": "[18]", "value": 333, "unit": "M⁻¹ s⁻¹"}
    ]},
    {"compound": "C=C1CC(c2ccc(NC(=N)N)cc2)CC(=O)O1", "note": "(centres undefined)", "values": [
      {"measurement": "Kd", "setting": "Serine protease 1 [19]", "value": "3.3e-05", "unit": "s⁻¹"},
      {"measurement": "Kd", "setting": "[20]", "value": 0.00015, "unit": "s⁻¹"},
      {"measurement": "Kd", "setting": "Plasminogen", "value": "Not measurable"}
    ]},
    {"compound": "CC1(C)CC(=O)O/C(=C/Br)C1", "values": [
      {"measurement": "ka/Ki", "setting": "[21]", "value": 667, "unit": "M⁻¹ s⁻¹"},
      {"measurement": "ka", "setting": "[22]", "value": 0.43, "unit": "min⁻¹"},
      {"measurement": "ka/Ki", "setting": "[23]", "value": 33.3, "unit": "M⁻¹ s⁻¹"},
      {"measurement": "Ks/i", "setting": "[24]", "value": 284, "unit": "µM"},
      {"measurement": "Ks/i", "setting": "[25]", "value": 43.5, "unit": "µM"},
      {"measurement": "ka", "setting": "[26]", "value": 1.8, "unit": "min⁻¹"}
    ]},
    {"compound": "CC(C)C1CC/C(=C\\Br)OC1=O", "note": "(centres undefined)", "values": [
      {"measurement": "ka/Ki", "setting": "[2]", "value": 333, "unit": "M⁻¹ s⁻¹"},
      {"measurement": "ka", "setting": "[27]", "value": 6, "unit": "min⁻¹"},
      {"measurement": "ka/Ki", "setting": "Serine protease 1 [28]", "value": 667, "unit": "M⁻¹ s⁻¹"},
      {"measurement": "ka", "setting": "[5]", "value": 0.52, "unit": "min⁻¹"},
      {"measurement": "Ks/i", "setting": "[6]", "value": 26.9, "unit": "µM"},
      {"measurement": "ka", "setting": "[29]", "value": 0.67, "unit": "min⁻¹"},
      {"measurement": "ka/Ki", "setting": "[30]", "value": 14500, "unit": "M⁻¹ s⁻¹"},
      {"measurement": "ka", "setting": "Serine protease 1 [31]", "value": 1.8, "unit": "min⁻¹"},
      {"measurement": "Ks/i", "setting": "[32]", "value": 9.8, "unit": "µM"},
      {"measurement": "Ks/i", "setting": "Serine protease 1 [33]", "value": 44, "unit": "µM"},
      {"measurement": "Ks/i", "setting": "[34]", "value": 0.77, "unit": "µM"},
      {"measurement": "ka/Ki", "setting": "[35]", "value": 10000, "unit": "M⁻¹ s⁻¹"}
    ]}
  ]
}
